Several values for one entry are separate records, joined by “and”; a condition that tells them apart may be missing. Identical values can stand only once. Like-named read-outs stand apart in the source and are kept apart here.
Assays:
[1] = system: FLT3; conditions: doses of ≥ 80 mg/day; cited from earlier work
[2] = system: MV4-11 AML cells; conditions: mice xenografted with MV4-11 AML cells; cited from earlier work
[3] = system: FLT3 receptors expressing the F691L gatekeeper mutation; conditions: cited from earlier work
[4] = CYP3A4 drug-drug interaction study in healthy subjects; assay type: in vivo, human; conditions: for AUCinf, GLSM ratio / AUClast, GLSM ratio / Cmax, GLSM ratio: 100 indicates no change
[5] = Effect of food study in healthy subjects; assay type: in vivo, human; conditions: single 40 mg dose
[6] = Population PK analysis; assay type: in vivo, human
[7] = assay type: in vivo, human; conditions: R/R AML; achievable at QD doses of 80 mg or greater
[8] = for AUC / Cmax / Tmax / half-life: human, plasma, oral; for AUC / Cmax / Tmax: single dose (Day-2)
[9] = Hepatic impairment study, single-dose gilteritinib pharmacokinetics; assay type: in vivo, human; conditions: for AUC480, GLSM, Unbound / AUCinf, GLSM, Unbound / Cmax, GLSM, Unbound: single 10 mg dose, fasted, N = 8
[10] = system: c-Kit; conditions: preclinical evaluations; cited from earlier work
[11] = cited from earlier work
[12] = system: FLT3; conditions: cited from earlier work
[13] = assay type: in vivo, human
[14] = fluconazole + gilteritinib/gilteritinib alone
[15] = itraconazole + gilteritinib/gilteritinib alone
[16] = rifampicin + gilteritinib/gilteritinib alone
[17] = multiple dosing QD (Day 15), 20 mg, n = 3
[18] = multiple dosing QD (Day 15), 40 mg, n = 2
[19] = multiple dosing QD (Day 15), 40 mg, n = 12
[20] = multiple dosing QD (Day 15), 80 mg, n = 3
[21] = multiple dosing QD (Day 15), 80 mg, n = 20
[22] = multiple dosing QD (Day 15), 120 mg, n = 3
[23] = multiple dosing QD (Day 15), 120 mg, n = 61
[24] = multiple dosing QD (Day 15), 200 mg, n = 2
[25] = multiple dosing QD (Day 15), 200 mg, n = 79
[26] = multiple dosing QD (Day 15), 300 mg, n = 3
[27] = multiple dosing QD (Day 15), 300 mg, n = 15
[28] = metabolite profiling after 14C-gilteritinib
[29] = single oral dose of 14C-gilteritinib

CCc1nc(C(N)=O)c(Nc2ccc(N3CCC(N4CCN(C)CC4)CC3)c(OC)c2)nc1NC1CCOCC1 [gilteritinib, Gilteritinib]
maximum FLT3 inhibition [1]: > 90%
effect on tumor growth [2]: inhibited tumor growth and induced tumor regression
activity against FLT3 receptors expressing the F691L gatekeeper mutation [3]: weak activity
increase in systemic exposure of gilteritinib ([4]; coadministration of itraconazole (strong CYP3A4 inhibitor)): ~ 2.2 fold and 2.2 fold
increase in gilteritinib systemic exposure ([4]; coadministration with fluconazole): ~ 1.43 fold
decrease in gilteritinib systemic exposure ([4]; concomitant administration of rifampicin): ~ 70%
AUCinf, GLSM ratio [4, 14]: 143.5%
AUClast, GLSM ratio [4, 14]: 144.0%
Cmax, GLSM ratio [4, 14]: 115.7%
AUCinf, GLSM ratio [4, 15]: 221.4%
AUClast, GLSM ratio [4, 15]: 213.5%
Cmax, GLSM ratio [4, 15]: 119.8%
AUCinf, GLSM ratio [4, 16]: 28.5%
AUClast, GLSM ratio [4, 16]: 29.2%
Cmax, GLSM ratio [4, 16]: 73.4%
AUC72, GMR (fed/fasted) [5]: 91.0%
AUCinf, GMR (fed/fasted) [5]: 93.8%
AUClast, GMR (fed/fasted) [5]: 94.6%
Cmax, GMR (fed/fasted) [5]: 74.0%
half-life ([6]; human, plasma, oral): 113 h
volume of distribution ([6]; in vivo): large volume of distribution
steady-state Ctrough at which composite complete response occurred more commonly [7]: ≥ 100 ng/mL
dose proportionality of pharmacokinetics ([8]; 20 to 450 mg QD, R/R AML): dose-proportional pharmacokinetics
time at which steady state is achieved, based on Ctrough ([8]; QD dosing, visual inspection of median Ctrough): ≤ 15 days
AUC ([8]; 20 mg, AUC24, Mean (SD), n = 5): 302 ng·h/mL
AUC ([8]; 20 mg, AUC24, Median (range), n = 5): 262 ng·h/mL
Cmax ([8]; 20 mg, Mean (SD), n = 5): 28.1 ng/mL
Cmax ([8]; 20 mg, Median (range), n = 5): 23.7 ng/mL
Tmax ([8]; 20 mg, Median (range), n = 5): 2 h
half-life ([8]; 20 mg, t½, Mean (SD), multiple dosing QD (Day 15), 20 mg, n = 3, calculated from Rac): 62.1 h
half-life ([8]; 20 mg, t½, Median (range), multiple dosing QD (Day 15), 20 mg, n = 3, calculated from Rac): 54.5 h
AUC ([8]; 40 mg, AUC24, Mean (SD), n = 3): 360 ng·h/mL
AUC ([8]; 40 mg, AUC24, Median (range), n = 3): 315 ng·h/mL
Cmax ([8]; 40 mg, Mean (SD), n = 3): 25 ng/mL
Cmax ([8]; 40 mg, Median (range), n = 3): 17 ng/mL
Tmax ([8]; 40 mg, Median (range), n = 3): 5.98 h
half-life ([8]; 40 mg, t½, Mean (SD), multiple dosing QD (Day 15), 40 mg, n = 2, calculated from Rac): 152 h
half-life ([8]; 40 mg, t½, Median (range), multiple dosing QD (Day 15), 40 mg, n = 2, calculated from Rac): 152 h
AUC ([8]; 80 mg, AUC24, Mean (SD), n = 3): 1220 ng·h/mL
AUC ([8]; 80 mg, AUC24, Median (range), n = 3): 995 ng·h/mL
Cmax ([8]; 80 mg, Mean (SD), n = 3): 75.3 ng/mL
Cmax ([8]; 80 mg, Median (range), n = 3): 71.5 ng/mL
Tmax ([8]; 80 mg, Median (range), n = 3): 4 h
half-life ([8]; 80 mg, t½, Mean (SD), multiple dosing QD (Day 15), 80 mg, n = 3, calculated from Rac): 86.1 h
half-life ([8]; 80 mg, t½, Median (range), multiple dosing QD (Day 15), 80 mg, n = 3, calculated from Rac): 91 h
AUC ([8]; 120 mg, AUC24, Mean (SD), n = 3): 2480 ng·h/mL
AUC ([8]; 120 mg, AUC24, Median (range), n = 3): 1390 ng·h/mL
Cmax ([8]; 120 mg, Mean (SD), n = 3): 137 ng/mL
Cmax ([8]; 120 mg, Median (range), n = 3): 85.7 ng/mL
Tmax ([8]; 120 mg, Median (range), n = 3): 2.1 h
half-life ([8]; 120 mg, t½, Mean (SD), multiple dosing QD (Day 15), 120 mg, n = 3, calculated from Rac): 45.9 h
half-life ([8]; 120 mg, t½, Median (range), multiple dosing QD (Day 15), 120 mg, n = 3, calculated from Rac): 44.9 h
AUC ([8]; 200 mg, AUC24, Mean (SD), n = 3): 3020 ng·h/mL
AUC ([8]; 200 mg, AUC24, Median (range), n = 3): 2540 ng·h/mL
Cmax ([8]; 200 mg, Mean (SD), n = 3): 168 ng/mL
Cmax ([8]; 200 mg, Median (range), n = 3): 149 ng/mL
Tmax ([8]; 200 mg, Median (range), n = 3): 5.2 h
half-life ([8]; 200 mg, t½, Mean (SD), multiple dosing QD (Day 15), 200 mg, n = 2, calculated from Rac): 142 h
half-life ([8]; 200 mg, t½, Median (range), multiple dosing QD (Day 15), 200 mg, n = 2, calculated from Rac): 142 h
AUC ([8]; 300 mg, AUC24, Mean (SD), n = 3): 4160 ng·h/mL
AUC ([8]; 300 mg, AUC24, Median (range), n = 3): 2450 ng·h/mL
Cmax ([8]; 300 mg, Mean (SD), n = 3): 204 ng/mL
Cmax ([8]; 300 mg, Median (range), n = 3): 137 ng/mL
Tmax ([8]; 300 mg, Median (range), n = 3): 6.1 h
half-life ([8]; 300 mg, t½, Mean (SD), multiple dosing QD (Day 15), 300 mg, n = 3, calculated from Rac): 142 h
half-life ([8]; 300 mg, t½, Median (range), multiple dosing QD (Day 15), 300 mg, n = 3, calculated from Rac): 159 h
AUC ([8]; 450 mg, AUC24, Mean (SD), n = 2): 3320 ng·h/mL
AUC ([8]; 450 mg, AUC24, Median (range), n = 2): 3320 ng·h/mL
Cmax ([8]; 450 mg, Mean (SD), n = 3): 208 ng/mL
Cmax ([8]; 450 mg, Median (range), n = 3): 216 ng/mL
Tmax ([8]; 450 mg, Median (range), n = 3): 5.8 h
half-life ([8]; estimated t1/2, across dose cohorts, multiple dosing): 45 to 159 h
accumulation based on the accumulation index ([8]; multiple dosing QD): up to ten-fold accumulation
Rac (accumulation ratio), Mean (SD) [8, 17]: 4.3 (1.069)
Rac (accumulation ratio), Median (range) [8, 17]: 3.8 (3.5–5.5)
Ctrough, Mean (SD) ([8]; multiple dosing QD (Day 15), 20 mg, n = 11): 43.5 (23.5) ng/mL
Rac (accumulation ratio), Mean (SD) [8, 18]: 9.6 (7.8)
Rac (accumulation ratio), Median (range) [8, 18]: 9.6 (4.2–15.1)
Ctrough, Mean (SD) [8, 19]: 72.9 (40.1) ng/mL
Ctrough, Median (range) [8, 19]: 66.6 (26.7–166) ng/mL
Rac (accumulation ratio), Mean (SD) [8, 20]: 5.7 (1.4)
Rac (accumulation ratio), Median (range) [8, 20]: 6.0 (4.1–6.97)
Ctrough, Mean (SD) [8, 21]: 165 (88.0) ng/mL
Ctrough, Median (range) [8, 21]: 110 (78.6–339) ng/mL
Rac (accumulation ratio), Mean (SD) [8, 22]: 3.3 (1.2)
Rac (accumulation ratio), Median (range) [8, 22]: 3.2 (2.2–4.4)
Ctrough, Mean (SD) [8, 23]: 367 (253) ng/mL
Ctrough, Median (range) [8, 23]: 292 (77.1–1173) ng/mL
Rac (accumulation ratio), Mean (SD) [8, 24]: 9.0 (3.7)
Rac (accumulation ratio), Median (range) [8, 24]: 9.0 (6.4–11.7)
Ctrough, Mean (SD) [8, 25]: 816 (557) ng/mL
Ctrough, Median (range) [8, 25]: 668 (90.5–2925) ng/mL
Rac (accumulation ratio), Mean (SD) [8, 26]: 9.1 (3.3)
Rac (accumulation ratio), Median (range) [8, 26]: 10.1 (5.4–11.7)
Ctrough, Mean (SD) [8, 27]: 1242 (723) ng/mL
Ctrough, Median (range) [8, 27]: 1085 (470–2391) ng/mL
Ctrough, Mean (SD) ([8]; multiple dosing QD (Day 15), 450 mg, n = 1): 1170 ng/mL
AUC480, GMR vs normal hepatic function, Total ([9]; mild hepatic impairment): 78.13%
AUC480, GMR vs normal hepatic function, Unbound ([9]; mild hepatic impairment): 87.59%
AUCinf, GMR vs normal hepatic function, Total ([9]; mild hepatic impairment): 78.88%
AUCinf, GMR vs normal hepatic function, Unbound ([9]; mild hepatic impairment): 88.42%
Cmax, GMR vs normal hepatic function, Total ([9]; mild hepatic impairment): 106.59%
Cmax, GMR vs normal hepatic function, Unbound ([9]; mild hepatic impairment): 119.49%
AUC480, GMR vs normal hepatic function, Total ([9]; moderate hepatic impairment): 60.55%
AUC480, GMR vs normal hepatic function, Unbound ([9]; moderate hepatic impairment): 87.21%
AUCinf, GMR vs normal hepatic function, Total ([9]; moderate hepatic impairment): 61.43%
AUCinf, GMR vs normal hepatic function, Unbound ([9]; moderate hepatic impairment): 88.48%
Cmax, GMR vs normal hepatic function, Total ([9]; moderate hepatic impairment): 81.73%
Cmax, GMR vs normal hepatic function, Unbound ([9]; moderate hepatic impairment): 117.72%
AUC480, GLSM, Unbound ([9]; mild hepatic impairment): 25.95 ng·h/mL
AUCinf, GLSM, Unbound ([9]; mild hepatic impairment): 27.53 ng·h/mL
Cmax, GLSM, Unbound ([9]; mild hepatic impairment): 0.5171 ng/mL
AUC480, GLSM, Unbound ([9]; moderate hepatic impairment): 25.84 ng·h/mL
AUCinf, GLSM, Unbound ([9]; moderate hepatic impairment): 27.54 ng·h/mL
Cmax, GLSM, Unbound ([9]; moderate hepatic impairment): 0.5095 ng/mL
AUC480, GLSM, Unbound ([9]; normal hepatic function): 29.62 ng·h/mL
AUCinf, GLSM, Unbound ([9]; normal hepatic function): 31.13 ng·h/mL
Cmax, GLSM, Unbound ([9]; normal hepatic function): 0.4328 ng/mL
activity against c-Kit [10]: weak activity
maximum tolerated dose ([11]; R/R AML, QD single agent): 300 mg/day
median overall survival duration ([11]; doses of ≥ 80 mg/day): 31 weeks
overall response rate ([11]; doses of ≥ 80 mg/day): 52%
inhibition of FLT3 receptors with ITD and D835 mutations [12]: highly specific potent inhibition
selectivity for FLT3 ([12]; preclinical evaluations): highly selective for FLT3
average total blood-to-plasma ratios of total 14C-radioactivity ([13]; after [14C]-gilteritinib 120 mg single dose at steady state): 0.8514–1.361
radioactive peak in feces, accounting for [13, 28]: 11.7–23.8%
radioactive peak in urine, accounting for [13, 28]: 6.3–15.8%
total administered dose recovered in feces [13, 29]: 64.5%
total dose recovered in urine [13, 29]: 16.4%
total radioactive dose recovered [13, 29]: 80.9%

From publication PMC7550323 (Clinical Pharmacokinetics, 2020)
